We go through one compound from patent publication US20050137243A1, “Antagonists of melanin concentrating hormone effects on the melanin concentrating hormone receptor” (priority 2003, published 2005).

The nature of series [1]: Efficacy: % weight loss in diet-induced obese (DIO) mice after two weeks of dosing. The series is classed as in vivo. The note with it: 100 mpk BID, PO, relative to vehicle control animals.
Series [2] in a line: Pharmacokinetic drug levels in whole brain after oral dose in DIO-mice. Format: in vivo. To be noted: 10 mpk PO, 0.5-24 h.

For the compound `O=C(Nc1ccc(Oc2ccccc2)cc1)Nc1ccc2c(cnn2CCN2CCCC2)c1` [Example 24, N-(4-phenoxyphenyl)-N′-[1-(2-pyrrolidin-1-ylethyl)-1H-indazol-5-yl]urea], the “DIO Mice % weight loss @ 14 days” value in series [1] worked out at 15%. Besides, the “Brain Conc. AUC” value in series [2] was 1428 ng·h/g.
